Reference: patent US9765075B2, “Substituted bridged urea analogs as sirtuin modulators” (GLAXOSMITHKLINE LLC, priority 2013, dated 2017)
Where two headings read alike, the source gives them in different places.

Biological target: T1, SIRT1 (Homo sapiens, UniProt Q96EB6)
T1 sequence (Q96EB6 1-747): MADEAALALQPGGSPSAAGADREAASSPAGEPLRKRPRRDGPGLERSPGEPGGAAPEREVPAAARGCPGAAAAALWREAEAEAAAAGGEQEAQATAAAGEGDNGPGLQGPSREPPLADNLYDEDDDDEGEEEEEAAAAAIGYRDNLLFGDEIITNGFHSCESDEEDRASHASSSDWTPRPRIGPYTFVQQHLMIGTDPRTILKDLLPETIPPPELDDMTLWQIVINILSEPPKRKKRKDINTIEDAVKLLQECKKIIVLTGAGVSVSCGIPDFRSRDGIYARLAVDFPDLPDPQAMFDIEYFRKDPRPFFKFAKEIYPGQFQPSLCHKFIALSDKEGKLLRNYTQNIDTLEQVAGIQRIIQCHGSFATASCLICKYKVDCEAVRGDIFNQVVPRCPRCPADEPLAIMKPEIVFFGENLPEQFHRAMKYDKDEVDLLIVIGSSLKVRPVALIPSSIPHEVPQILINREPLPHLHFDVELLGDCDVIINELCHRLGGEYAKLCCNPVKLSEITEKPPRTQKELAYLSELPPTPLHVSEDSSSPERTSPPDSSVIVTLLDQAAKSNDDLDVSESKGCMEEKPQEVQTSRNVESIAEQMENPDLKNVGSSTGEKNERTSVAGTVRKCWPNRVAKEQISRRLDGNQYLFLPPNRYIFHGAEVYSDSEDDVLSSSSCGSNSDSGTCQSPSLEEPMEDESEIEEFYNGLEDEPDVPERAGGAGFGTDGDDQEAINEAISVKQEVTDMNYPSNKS
Assay: Trp mass spectrometry assay (SIRT1 activation)
Format: biochemical
Settings: for Emax: percent maximum fold activation of SIRT1, read-out: Tryp % Fold Act
In short: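 N-His-tagged SIRT1 (10 nM), expressed in E. coli, was incubated with 0.5 μM Ac-RHKK(Ac)W-NH2 peptide and 120 μM NAD+ for 25 min at 25 °C in HEPES pH 7.5 with […]. The reaction was stopped with formic acid and O-acetyl-ADP-ribose or deacetylated peptide was quantified by mass spectrometry. Results are given as EC1.5 and percent maximal activation relative to DMSO control.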

[1] = concentration of test compound that results in 150% activation of SIRT1, Trp peptide substrate
[2] = Trp mass spectrometry assay, EC1.5 = concentration giving 150% activation of SIRT1
[3] = Trp mass spectrometry assay, EC1.5 = concentration of test compound that results in 150% activation of SIRT1

| SMILES | Tryp AVG EC1.5 (μM) [1] | Emax (Trp peptide substrate) | Tryp AVG EC1.5 (μM) [2] | Emax (Trp mass spectrometry assay) | Tryp AVG EC1.5 (μM) [3] |
| --- | --- | --- | --- | --- | --- |
| N#Cc1ccccc1-c1ccc2c(n1)N(C(=O)Nc1ccncn1)[C@H]1CCCN2C1 [Example 451] | B (EC1.5 1-25 μM) | ≥ 150% |  |  |  |
| CN(C)c1ccc(-c2ccc3c(n2)N(C(=O)Nc2ccccn2)[C@H]2CCN3C2)cn1 [Example 345] | B (EC1.5 1-25 μM) | ≥ 150% |  |  |  |
| CC(C)(C)OC(=O)NCC#Cc1cc(NC(=O)N2c3nc(-c4cccc(C(F)(F)F)c4)ccc3N3CC[C@H]2C3)cc(-c2cnco2)c1 [Example 749] |  |  | A (EC1.5<1 μM) | ≥ 150% |  |
| COc1cc(NC(=O)N2c3nc(-c4cccc(C(F)(F)F)c4)ccc3N3CC[C@H]2C3)ncn1 [Example 34] |  |  |  | ≥ 150% |  |
| O=C(Nc1ncc(-c2ccccc2)s1)N1c2nc(-c3cccc(C(F)(F)F)c3)ccc2N2CC[C@H]1C2 [Example 734] |  |  | B (EC1.5 1-25 μM) | ≥ 150% |  |
| COc1nccc(NC(=O)N2c3nc(-c4cccc(N5CCCC5)c4)ccc3N3CC[C@H]2C3)n1 [Example 188] |  |  |  | ≥ 150% | B (EC1.5 1-25 μM) |
| CCc1cccc(C)c1NC(=O)N1c2nc(-c3cccc(C(F)(F)F)c3)ccc2N2CC[C@H]1C2 [Example 69] |  |  |  | < 150% |  |
| O=C(Nc1nnc(C(F)(F)F)s1)N1c2nc(-c3cccc(C(F)(F)F)c3)ccc2N2CC[C@H]1C2 [Example 650] |  |  | C (EC1.5>25 μM) | < 150% |  |
| O=C(Nc1ccccn1)N1c2nc(-c3cccc(C(F)(F)F)c3)ccc2N2C[C@@H](O)[C@H]1C2 [Example 601] | A (EC1.5<1 μM) | ≥ 150% |  |  |  |
| Cc1nn(C)cc1NC(=O)N1c2nc(-c3cccc(C(F)(F)F)c3)ccc2N2CC[C@H]1C2 [Example 92] |  |  |  | ≥ 150% | B (EC1.5 1-25 μM) |
| NCc1cccc(NC(=O)N2c3nc(-c4cccc(C(F)(F)F)c4)ccc3N3CCC[C@H]2C3)c1 [Example 757] |  |  | A (EC1.5<1 μM) | ≥ 150% |  |
| O=C(Nc1cncc(F)c1)N1c2nc(C3CCCC(C(F)(F)F)C3)ccc2N2CC[C@H]1C2 (some centres unmarked) [Example 145] |  |  |  | ≥ 150% | A (EC1.5<1 μM) |
| O=C1C=CC2=C(c3ccc(NC(=S)NCc4ccc(NC(=O)N5c6nc(-c7cccc(C(F)(F)F)c7)ccc6N6CC[C@H]5C6)cc4)cc3C(=O)O)C3C=CC(O)=CC3OC2=C1 (some centres unmarked) [Example 530] | A (EC1.5<1 μM) | ≥ 150% |  |  |  |
| Cc1cc(-c2ccc3c(n2)N(C(=O)Nc2cccnc2)[C@H]2CCN3C2)ccn1 [Example 498] | A (EC1.5<1 μM) | ≥ 150% |  |  |  |
| COc1cc(NC(=O)N2c3nc(-c4ccnc(F)c4)ccc3N3CC[C@H]2C3)ncn1 [Example 358] | C (EC1.5>25 μM) | < 150% |  |  |  |
| O=C(Nc1nccs1)N1c2nc(N3CCCC(C(F)(F)F)C3)ccc2N2CCC[C@H]1C2 (some centres unmarked) [Example 295] | A (EC1.5<1 μM) | ≥ 150% |  |  |  |
| O=C(Nc1cnccn1)N1c2nc(-c3cccc(OC(F)(F)F)c3)ccc2N2CC[C@H]1C2 [Example 164] |  |  |  | ≥ 150% | A (EC1.5<1 μM) |
| O=C(Nc1cc(-c2cnco2)ccn1)N1c2nc(-c3cncc(C(F)(F)F)c3)ccc2N2C[C@@H](O)[C@H]1C2 [Example 726] |  |  | B (EC1.5 1-25 μM) | < 150% |  |
| NCC#Cc1ccc(NC(=O)N2c3nc(-c4cccc(C(F)(F)F)c4)ccc3N3CC[C@H]2C3)cc1-c1cnco1 [Example 766] |  |  | A (EC1.5<1 μM) | ≥ 150% |  |
| Cc1cc(C)nc(NC(=O)N2c3nc(N4CCCC(C(F)(F)F)C4)ccc3N3CCC[C@@H]2C3)c1 (some centres unmarked) [Example 301] | C (EC1.5>25 μM) | < 150% |  |  |  |
| N#Cc1cccc(-c2ccc3c(n2)N(C(=O)Nc2cccnn2)[C@@H]2CCCN3C2)c1 [Example 226] | B (EC1.5 1-25 μM) | ≥ 150% |  |  |  |
| O=C(Nc1cncc(-c2cnco2)c1)N1c2nc(-c3cncc(F)c3)ccc2N2CC[C@H]1C2 [Example 716] |  |  | B (EC1.5 1-25 μM) | ≥ 150% |  |
| CCn1ncc2c(NC(=O)N3c4nc(-c5cccc(C(F)(F)F)c5)ccc4N4CC[C@H]3C4)cccc21 [81 (9)] |  |  |  | ≥ 150% | A (EC1.5<1 μM) |
| O=C(CCCC[C@@H]1SC[C@@H]2NC(=O)N[C@@H]21)NCCCCCC(=O)NCc1cn(-c2cccc(NC(=O)N3c4nc(-c5cccc(C(F)(F)F)c5)ccc4N4CC[C@H]3C4)c2)nn1 [Example 607] | A (EC1.5<1 μM) |  |  |  |  |

| SMILES | Tryp AVG EC1.5 (μM) [1] | Emax (Trp peptide substrate) | Tryp AVG EC1.5 (μM) [2] | Emax (Trp mass spectrometry assay) | Tryp AVG EC1.5 (μM) [3] |
| --- | --- | --- | --- | --- | --- |
| O=C(Nc1ccncc1F)N1c2nc(-c3cccc(C(F)(F)F)c3)ccc2N2CCC[C@H]1C2 [Example 42] |  |  |  | ≥ 150% |  |
| O=C(Nc1ccncc1)N1c2nc(-c3cccc(C(F)(F)F)c3)ccc2N2CCC[C@@H]1C2 [Example 195] |  |  |  | ≥ 150% | B (EC1.5 1-25 μM) |
| Cc1nc(NC(=O)N2c3nc(C4CCCC(C(F)(F)F)C4)ccc3N3CC[C@H]2C3)sc1C (some centres unmarked) [Example 149] |  |  |  | ≥ 150% | B (EC1.5 1-25 μM) |
| C#CCNc1nccc(NC(=O)N2c3nc(-c4cccc(C5(C(F)(F)F)N=N5)c4)ccc3N3CC[C@H]2C3)n1 [Example 809] |  |  | B (EC1.5 1-25 μM) | ≥ 150% |  |
| Cc1ccc(-c2ccc3c(n2)N(C(=O)Nc2ccccn2)[C@H]2CCN3C2)cn1 [Example 221] | B (EC1.5 1-25 μM) | ≥ 150% |  |  |  |
| O=C(Nc1cncc(F)c1)N1c2nc(N3CC[C@H](F)C3)ccc2S(=O)(=O)N2CC[C@H]1C2 [Example 469] | C (EC1.5>25 μM) | < 150% |  |  |  |
| Cc1cncc(NC(=O)N2c3nc(N4CC[C@H](N(C)C)C4)ccc3N3CC[C@H]2C3)c1 [Example 243] | C (EC1.5>25 μM) | ≥ 150% |  |  |  |
| O=C(Nc1cnccn1)N1c2nc(-c3cccc(N4CC[C@@H](F)C4)c3)ccc2N2CC[C@H]1C2 [Example 267] | B (EC1.5 1-25 μM) | ≥ 150% |  |  |  |
| Cc1cncc(NC(=O)N2c3nc(-c4cccc(C(F)(F)F)c4)ccc3N3C[C@@H](O)[C@H]2C3)c1 [Example 670] |  |  | A (EC1.5<1 μM) | ≥ 150% |  |
| Cc1nc(NC(=O)N2c3nc(-c4cncc(Cl)c4)ccc3N3CCC2CC3)sc1C [Example 554] | B (EC1.5 1-25 μM) | ≥ 150% |  |  |  |
| O=C(Nc1ccccn1)N1c2nc(-c3cncc(Cl)c3)ccc2N2CC[C@H]1C2 [Example 260] | A (EC1.5<1 μM) | ≥ 150% |  |  |  |
| O=C(Nc1cncc(F)c1)N1c2nc(-c3ccnc(N4CCC(C(F)(F)F)C4)c3)ccc2N2CC[C@H]1C2 (some centres unmarked) [Example 410] | A (EC1.5<1 μM) | ≥ 150% |  |  |  |
| O=C(NCCn1ccnc1)N1c2nc(-c3cccc(C(F)(F)F)c3)ccc2N2CC[C@H]1C2 [Example 661] |  |  | C (EC1.5>25 μM) | ≥ 150% |  |
| O=C(Nc1ccccn1)N1c2nc(-c3cccc(C(F)(F)F)c3)ccc2N2CCC1CC2 [Example 158] |  |  |  | ≥ 150% | B (EC1.5 1-25 μM) |
| Cc1nc(NC(=O)N2c3nc(-c4cccnc4)ccc3N3CCC[C@H]2C3)sc1C [Example 466] | B (EC1.5 1-25 μM) | ≥ 150% |  |  |  |
| CC(C)NC(=O)N1c2nc(-c3cccc(C(F)(F)F)c3)ccc2N2CC[C@H]1C2 [Example 51] |  |  |  | ≥ 150% |  |
| COc1ccc(C)nc1NC(=O)N1c2nc(-c3cccc(C(F)(F)F)c3)ccc2N2CC[C@H]1C2 [Example 77] |  |  |  | ≥ 150% | B (EC1.5 1-25 μM) |
| Cn1ccc(NC(=O)N2c3nc(-c4cccc(C(F)(F)F)c4)ccc3N3CCC[C@H]2C3)n1 [Example 36] |  |  |  | ≥ 150% |  |
| N#Cc1cccc(-c2ccc3c(n2)N(C(=O)Nc2cnccn2)[C@H]2CCCN3C2)c1 [Example 351] | A (EC1.5<1 μM) | ≥ 150% |  |  |  |
| Cc1cnccc1NC(=O)N1c2nc(-c3cccc(C(F)(F)F)c3)ccc2N2CC[C@H]1C2 [Example 21] |  |  |  | ≥ 150% |  |
| O=C(Nc1cc(-c2cnco2)ccn1)N1c2nc(-c3cccc(C(F)(F)F)c3)ccc2N2C[C@@H](O)[C@H]1C2 [Example 662] |  |  | B (EC1.5 1-25 μM) | ≥ 150% |  |
| NCc1ccc(NC(=O)N2c3nc(-c4cccc(C(F)(F)F)c4)ccc3N3CC[C@H]2C3)cc1 [Example 429] | B (EC1.5 1-25 μM) | ≥ 150% |  |  |  |
| O=C(Nc1cncc(F)c1)N1c2nc(-c3cccc(Cl)c3)ccc2N2C[C@@H](O)[C@H]1C2 [Example 677] |  |  | B (EC1.5 1-25 μM) | ≥ 150% |  |
| Cc1n[nH]c(C)c1-c1ccc2c(n1)N(C(=O)Nc1cccnc1)[C@H]1CCN2C1 [Example 525] | B (EC1.5 1-25 μM) | ≥ 150% |  |  |  |
